System: 873145-292-R-J1-PDC complex spheroid viability
Experiment: Anticancer human tumor 873145-292-R-J1-PDC patient-derived renal clear cell carcinoma cell line growth inhibition [POLQ]
Conditions: for IC50: curve of first compound; for viability, T/C: stronger effect = lower value
How it was run: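 Three-cell-type spheroids modelling solid tumor plus stroma served as the readout system; POL inhibitors were tested individually and in combination, concentration ranges set by clinical Cmax where known.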

[1] = second compound 0.0316 µM, first compound 0.0316 µM
[2] = second compound 0.0316 µM, first compound 0.1 µM
[3] = second compound 0.0316 µM, first compound 0.316 µM
[4] = second compound 0.0316 µM, first compound 1 µM
[5] = second compound 0.0316 µM, first compound 3.16 µM
[6] = second compound 0.0316 µM, first compound 10 µM
[7] = second compound 0.1 µM, first compound 0.0316 µM
[8] = second compound 0.1 µM, first compound 0.1 µM
[9] = second compound 0.1 µM, first compound 0.316 µM
[10] = second compound 0.1 µM, first compound 1 µM
[11] = second compound 0.1 µM, first compound 3.16 µM
[12] = second compound 0.1 µM, first compound 10 µM
[13] = second compound 0.316 µM, first compound 0.0316 µM
[14] = second compound 0.316 µM, first compound 0.1 µM
[15] = second compound 0.316 µM, first compound 0.316 µM
[16] = second compound 0.316 µM, first compound 1 µM
[17] = second compound 0.316 µM, first compound 3.16 µM
[18] = second compound 0.316 µM, first compound 10 µM
[19] = second compound 1 µM, first compound 0.0316 µM
[20] = second compound 1 µM, first compound 0.1 µM
[21] = second compound 1 µM, first compound 0.316 µM
[22] = second compound 1 µM, first compound 1 µM
[23] = second compound 1 µM, first compound 3.16 µM
[24] = second compound 1 µM, first compound 10 µM
[25] = second compound 3.16 µM, first compound 0.0316 µM
[26] = second compound 3.16 µM, first compound 0.1 µM
[27] = second compound 3.16 µM, first compound 0.316 µM
[28] = second compound 3.16 µM, first compound 1 µM
[29] = second compound 3.16 µM, first compound 3.16 µM
[30] = second compound 3.16 µM, first compound 10 µM
[31] = second compound 10 µM, first compound 0.0316 µM
[32] = second compound 10 µM, first compound 0.1 µM
[33] = second compound 10 µM, first compound 0.316 µM
[34] = second compound 10 µM, first compound 1 µM
[35] = second compound 10 µM, first compound 3.16 µM
[36] = second compound 10 µM, first compound 10 µM
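Also: spheroids exposed to compounds for 7 days before viability readout.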
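For viability, T/C in this document: luminescence signal used as surrogate for viable cell content; 100% = DMSO vehicle control viability.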

SMILES: C=CC(=O)N1CCN(c2nc(=O)n(-c3c(C)ccnc3C(C)C)c3nc(-c4c(O)cccc4F)c(F)cc23)C(C)C1 (stereo not given) + COC1C(OC(N)=O)C(O)C(Oc2ccc3c(O)c(NC(=O)c4ccc(O)c(CC=C(C)C)c4)c(=O)oc3c2C)OC1(C)C
- IC50 (second compound 0.0316 µM): > 10 µM
- IC50 (second compound 0.1 µM): > 10 µM
- IC50 (second compound 0.316 µM): > 10 µM
- IC50 (second compound 1 µM): > 10 µM
- IC50 (second compound 3.16 µM): > 10 µM
- IC50 (second compound 10 µM): > 10 µM
- viability, T/C [1]: 102%
- viability, T/C [2]: 97.9%
- viability, T/C [3]: 110%
- viability, T/C [4]: 114%
- viability, T/C [5]: 119%
- viability, T/C [6]: 130%
- viability, T/C [7]: 98.7%
- viability, T/C [8]: 99.6%
- viability, T/C [9]: 91.5%
- viability, T/C [10]: 111%
- viability, T/C [11]: 114%
- viability, T/C [12]: 114%
- viability, T/C [13]: 102%
- viability, T/C [14]: 97%
- viability, T/C [15]: 118%
- viability, T/C [16]: 113%
- viability, T/C [17]: 138%
- viability, T/C [18]: 119%
- viability, T/C [19]: 94.5%
- viability, T/C [20]: 94%
- viability, T/C [21]: 105%
- viability, T/C [22]: 104%
- viability, T/C [23]: 120%
- viability, T/C [24]: 126%
- viability, T/C [25]: 92.4%
- viability, T/C [26]: 92.7%
- viability, T/C [27]: 105%
- viability, T/C [28]: 113%
- viability, T/C [29]: 126%
- viability, T/C [30]: 121%
- viability, T/C [31]: 99.7%
- viability, T/C [32]: 109%
- viability, T/C [33]: 113%
- viability, T/C [34]: 116%
- viability, T/C [35]: 111%
- viability, T/C [36]: 125%

SMILES: CC(C)n1c(=O)n(C)c2cnc3cc(F)c(-c4ccc(OCCCN5CCCCC5)nc4)cc3c21 + COC1C(OC(N)=O)C(O)C(Oc2ccc3c(O)c(NC(=O)c4ccc(O)c(CC=C(C)C)c4)c(=O)oc3c2C)OC1(C)C
- IC50 (second compound 0.0316 µM): > 10 µM
- IC50 (second compound 0.1 µM): > 10 µM
- IC50 (second compound 0.316 µM): > 10 µM
- IC50 (second compound 1 µM): > 10 µM
- IC50 (second compound 3.16 µM): > 10 µM
- IC50 (second compound 10 µM): > 10 µM
- viability, T/C [1]: 96%
- viability, T/C [2]: 93%
- viability, T/C [3]: 99.2%
- viability, T/C [4]: 105%
- viability, T/C [5]: 92.8%
- viability, T/C [6]: 82.5%
- viability, T/C [7]: 94%
- viability, T/C [8]: 96.7%
- viability, T/C [9]: 92.9%
- viability, T/C [10]: 90%
- viability, T/C [11]: 100%
- viability, T/C [12]: 90.8%
- viability, T/C [13]: 95.5%
- viability, T/C [14]: 98.9%
- viability, T/C [15]: 109%
- viability, T/C [16]: 87.3%
- viability, T/C [17]: 104%
- viability, T/C [18]: 78.9%
- viability, T/C [19]: 105%
- viability, T/C [20]: 106%
- viability, T/C [21]: 92.9%
- viability, T/C [22]: 94.1%
- viability, T/C [23]: 90.8%
- viability, T/C [24]: 82.7%
- viability, T/C [25]: 96%
- viability, T/C [26]: 104%
- viability, T/C [27]: 98.7%
- viability, T/C [28]: 91.7%
- viability, T/C [29]: 90.5%
- viability, T/C [30]: 86.9%
- viability, T/C [31]: 96.2%
- viability, T/C [32]: 91.1%
- viability, T/C [33]: 104%
- viability, T/C [34]: 90.5%
- viability, T/C [35]: 107%
- viability, T/C [36]: 88.7%

SMILES: CC1COCCN1c1cc(C2(S(C)(=N)=O)CC2)nc(-c2ccnc3[nH]ccc23)n1 (stereo not given) + COC1C(OC(N)=O)C(O)C(Oc2ccc3c(O)c(NC(=O)c4ccc(O)c(CC=C(C)C)c4)c(=O)oc3c2C)OC1(C)C
- IC50 (second compound 0.0316 µM): > 10 µM
- IC50 (second compound 0.1 µM): > 10 µM
- IC50 (second compound 0.316 µM): > 10 µM
- IC50 (second compound 1 µM): > 10 µM
- IC50 (second compound 3.16 µM): > 10 µM
- IC50 (second compound 10 µM): > 10 µM
- viability, T/C [1]: 98.8%
- viability, T/C [2]: 101%
- viability, T/C [3]: 88.6%
- viability, T/C [4]: 88.3%
- viability, T/C [5]: 86.4%
- viability, T/C [6]: 67.8%
- viability, T/C [7]: 105%
- viability, T/C [8]: 94.7%
- viability, T/C [9]: 90.8%
- viability, T/C [10]: 90.1%
- viability, T/C [11]: 81.3%
- viability, T/C [12]: 58.5%
- viability, T/C [13]: 102%
- viability, T/C [14]: 95.6%
- viability, T/C [15]: 90%
- viability, T/C [16]: 82.7%
- viability, T/C [17]: 80.3%
- viability, T/C [18]: 55.8%
- viability, T/C [19]: 100%
- viability, T/C [20]: 90.2%
- viability, T/C [21]: 96.7%
- viability, T/C [22]: 95.6%
- viability, T/C [23]: 85.6%
- viability, T/C [24]: 61.5%
- viability, T/C [25]: 100%
- viability, T/C [26]: 90.1%
- viability, T/C [27]: 103%
- viability, T/C [28]: 82.7%
- viability, T/C [29]: 82.6%
- viability, T/C [30]: 62.2%
- viability, T/C [31]: 95.1%
- viability, T/C [32]: 92.9%
- viability, T/C [33]: 95.6%
- viability, T/C [34]: 81.1%
- viability, T/C [35]: 74.8%
- viability, T/C [36]: 64.6%

SMILES: CCCS(=O)(=O)Nc1ccc(F)c(C(=O)c2c[nH]c3ncc(-c4ccc(Cl)cc4)cc23)c1F + COC1C(OC(N)=O)C(O)C(Oc2ccc3c(O)c(NC(=O)c4ccc(O)c(CC=C(C)C)c4)c(=O)oc3c2C)OC1(C)C
- IC50 (second compound 0.0316 µM): > 10 µM
- IC50 (second compound 0.1 µM): > 10 µM
- IC50 (second compound 0.316 µM): > 10 µM
- IC50 (second compound 1 µM): > 10 µM
- IC50 (second compound 3.16 µM): > 10 µM
- IC50 (second compound 10 µM): > 10 µM
- viability, T/C [1]: 118%
- viability, T/C [2]: 98.8%
- viability, T/C [3]: 99.4%
- viability, T/C [4]: 107%
- viability, T/C [5]: 90.7%
- viability, T/C [6]: 62.5%
- viability, T/C [7]: 113%
- viability, T/C [8]: 108%
- viability, T/C [9]: 108%
- viability, T/C [10]: 112%
- viability, T/C [11]: 89.8%
- viability, T/C [12]: 57.7%
- viability, T/C [13]: 104%
- viability, T/C [14]: 92.5%
- viability, T/C [15]: 98.9%
- viability, T/C [16]: 99.8%
- viability, T/C [17]: 94.9%
- viability, T/C [18]: 57.3%
- viability, T/C [19]: 96.9%
- viability, T/C [20]: 111%
- viability, T/C [21]: 102%
- viability, T/C [22]: 107%
- viability, T/C [23]: 94.2%
- viability, T/C [24]: 60.9%
- viability, T/C [25]: 102%
- viability, T/C [26]: 103%
- viability, T/C [27]: 105%
- viability, T/C [28]: 91.2%
- viability, T/C [29]: 89.5%
- viability, T/C [30]: 53.2%
- viability, T/C [31]: 89.3%
- viability, T/C [32]: 93.3%
- viability, T/C [33]: 98.8%
- viability, T/C [34]: 106%
- viability, T/C [35]: 93.2%
- viability, T/C [36]: 64.7%

SMILES: COc1ccc([C@@H](O)c2cc(-c3ncnc4cc(N5CCOCC5)ccc34)c(F)cc2Cl)nn1 + COC1C(OC(N)=O)C(O)C(Oc2ccc3c(O)c(NC(=O)c4ccc(O)c(CC=C(C)C)c4)c(=O)oc3c2C)OC1(C)C
- IC50 (second compound 0.0316 µM): 4.41 µM
- IC50 (second compound 0.1 µM): 4.1 µM
- IC50 (second compound 0.316 µM): 3.22 µM
- IC50 (second compound 1 µM): 3.96 µM
- IC50 (second compound 3.16 µM): 6.14 µM
- IC50 (second compound 10 µM): 5.25 µM
- viability, T/C [1]: 92%
- viability, T/C [2]: 97.4%
- viability, T/C [3]: 81.2%
- viability, T/C [4]: 69.8%
- viability, T/C [5]: 50.3%
- viability, T/C [6]: 46.1%
- viability, T/C [7]: 94.3%
- viability, T/C [8]: 87.9%
- viability, T/C [9]: 83.1%
- viability, T/C [10]: 71.3%
- viability, T/C [11]: 51.7%
- viability, T/C [12]: 40.3%
- viability, T/C [13]: 108%
- viability, T/C [14]: 93%
- viability, T/C [15]: 76.1%
- viability, T/C [16]: 64.9%
- viability, T/C [17]: 51.3%
- viability, T/C [18]: 36.6%
- viability, T/C [19]: 92.4%
- viability, T/C [20]: 85.5%
- viability, T/C [21]: 83.5%
- viability, T/C [22]: 68.1%
- viability, T/C [23]: 52.5%
- viability, T/C [24]: 40.1%
- viability, T/C [25]: 89.1%
- viability, T/C [26]: 92.4%
- viability, T/C [27]: 85.7%
- viability, T/C [28]: 65.1%
- viability, T/C [29]: 62.9%
- viability, T/C [30]: 42.7%
- viability, T/C [31]: 99.1%
- viability, T/C [32]: 90%
- viability, T/C [33]: 88.7%
- viability, T/C [34]: 70.4%
- viability, T/C [35]: 58.9%
- viability, T/C [36]: 39.9%

Source: PubChem BioAssay AID1963834 (Molecular Pharmacology Branch, DTP, NCI, 2024)
